The test system of the first series is Caco-2 cells. In words: Caco-2 cell assay permeability. The class given is in vitro ADME, Human. Particulars: Caco-2. From the text: For general discussions of the Caco Assay see: S. Yee, “In Vitro Permeability Across Caco-2 Cells (Colonic) Can Predict In Vivo (Small Intestinal) Absorption in Man—Fact or Myth” Pharm. Res. 14(6):763-766 (1997) and Yamashita et. al., “Analysis of Drug Permeation Across Caco-2 Monolayer: Implication for Predicting In Vivo Drug Absorption” Pharm. Res. 14(4):486-491(1997). For specific technical aspects see: Grass, G. M. and Sweetana, S. A. “In Vitro Measurement of Gastrointestinal Tissue Permeability Using a New Diffusion Cell” Pharm. Res. 5(6):372-376 (1988); Rubas et. al., “Comparison of the Permeability Characteristics of a Human Colonic Epithelial (Caco-2) Cell Line to Colon of Rabbit, Monkey, and Dog Intestine and Human Drug Absorption” Pharm. Res. 10(1): 113-117 (1993).
High passage (108-120) Caco-2 cells are cultured in Dulbecco's Modified Eagle Media with high Glucose and L-Glutamine (DMEM) (Gibco/Life Technologies, Cat # 11965-084) supplemented with 10% Fetal Bovine Serum, 1× L-Glutamine (Gibco/Life Technologies, Cat # 25030-081) 1× Penicillin-streptomycin (Gibco/Life Technologies, Cat # 15140-122) 1× Non-essential Amino Acids, (Gibco/Life Technologies, Cat # 11140-019). Cells are maintained in T225 cm^2 Cell Culture Flask Tissue Culture Treated (Costar, Cat # 3001) at 37° C. and 5% CO2. For transport experiments, cells are plated at 7.1×10^4 cells/well into 12-well collagen-coated PTFE membrane polystyrene plates with inserts (Costar # 3493, 12 mm diameter, 0.4 um pore size, sterile, tissue culture treated). Cells are fed every 3 days and maintained at 37° C. and 5% CO2 for 21 days to allow complete formation of a polarized monolayer with tight junctions.
Prepare 5 mg/ml stock solution of test compound in DMSO and store at 4° C. Dilute desired amount of 5 mg/ml stock to 10 mL with pH 6.5 Kreb's Henseleit bicarbonate buffer to give a concentration of 100 μM. Then 1 mL of 100 μM solution was further diluted to 5 mL to make the concentration of 20 μM. This 20 μM test solution was used as initial donor dosing solution (D0). Warm drug solution(s) to 37° C. before use.
1. Prewarm buffer, working solutions, and three 12-well plates containing buffer for each plate of 12 inserts. Using a millicell®-ERS equipped with “chopstick” electrodes (Millipore, Bedford, Mass.) check the TEER. This procedure should be done when the cells are at approximately 37° C., since TEER is effected by temperature. Use only those inserts that have TEER above 300 ohms.
2. Decant media and wash each insert once with warm Kreb's-Henseleit bicarbonate buffer.
3. 0.5 mL pH 6.5 Kreb's-Henseleit buffer was added to apical side of the cell monolayers and 1.25 mL pH 7.4 Kreb's-Henseleit buffer to the basolateral chamber. The cells were equilibrated in 37° C. and 5% CO2 incubator for at least 30 minutes.
4. The apical side buffer was removed and replaced with 0.5 mL 20 μM test solutions.
5. The cells were then incubated at 37° C. and 5% CO2.
6. At 30, 60 and 90 minutes time points, the inserts were transferred to new plates which receiver sides contained 1.25 mL warm fresh pH 7.4 Kreb's-Henseleit buffer.
7. The media from all plates were collected as receiver samples.
8. After 60 min transport studies, Lucifer Yellow (0.05 mL×1000 μM) was added to the apical side of the wells. At the end of the transport studies (90 minutes), the fluorescence of the receiver side samples was measured.
Sample solutions from the donor side were collected at the end of the experiments as D90 samples. The dC/dt of test substance was calculated from sampling data at […] (assume 0 ng/mL) and 60 minutes. The apparent permeability coefficient (Papp) was calculated from the following equation, [formula] […]
(In general: Caco-2 cells form a polarised layer with tight junctions and transporters.)
In the case of `CC(C)[C@H](N)C(=O)N1CCC[C@H]1C(=O)OC[C@@H]1O[C@H](n2cnc(C(N)=O)n2)[C@@H](O)[C@H]1O.Cl` [Compound 18, 1-(2S-amino-3-methyl-butyryl)-pyrrolidine-2S-carboxylic acid 5S-(3-carbamoyl-[1,2,4]triazol-1-yl)-3R,4S-dihydroxy-tetrahydro-furan-2S-ylmethyl ester, hydrochloride], the Caco-2 permeability worked out at 3.4 ×10⁻⁶ cm/s.

The same series, now with this note: apparent permeability coefficient (Papp); apical pH 6.5 to basolateral pH 7.4; 20 μM test solution; 37° C.
On to “2S-amino-3-methyl-butyric acid 4S-(2S-amino-3-methyl-butyryloxy)-5S-(3-carbamoyl-[1,2,4]triazol-1-yl)-2S-hydroxymethyl-tetrahydrofuran-3S-yl ester dihydrochloride [Compound 3]”, for which the Caco-2 permeability stood at 8.6 ×10⁻⁶ cm/s. With `CCC(=O)OC[C@@H]1O[C@H](n2cnc(C(N)=O)n2)[C@@H](OC(=O)CC)[C@H]1OC(=O)CC` [Compound 2, propionic acid 3S,4S-bis-propionyloxy-5S-(3-carbamoyl-[1,2,4]triazol-1-yl)-tetrahydro-furan-2S-ylmethyl ester], the Caco-2 permeability worked out at 7.8 ×10⁻⁶ cm/s. On to `CC(C)[C@H](N)C(=O)OC[C@@H]1O[C@H](n2cnc(C(N)=O)n2)[C@@H](O)[C@H]1O.Cl` [Compound 5, 2S-amino-3-methyl-butyric acid 5S-(3-carbamoyl-[1,2,4]triazol-1-yl)-3R,4S-dihydroxy-tetrahydro-furan-2S-ylmethyl ester, hydrochloride], for which the Caco-2 permeability was determined as 5.6 ×10⁻⁶ cm/s. Same read-out and setting: the value for `C[C@H](N)C(=O)OC[C@@H]1O[C@H](n2cnc(C(N)=O)n2)[C@@H](O)[C@H]1O.Cc1ccc(S(=O)(=O)O)cc1` [Compound 7, 2S-amino-propionic acid 5S-(3-carbamoyl-[1,2,4]triazol-1-yl)-3R,4S-dihydroxy-tetrahydro-furan-2S-ylmethyl ester; compound with toluene-4-sulfonic acid] was 1.2 ×10⁻⁶ cm/s. As for `CC(C)C[C@H](N)C(=O)OC[C@@H]1O[C@H](n2cnc(C(N)=O)n2)[C@@H](O)[C@H]1O.Cc1ccc(S(=O)(=O)O)cc1` [Compound 9, 2S-amino-4-methyl-pentanoic acid 5S-(3-carbamoyl-[1,2,4]triazol-1-yl)-3R,4S-dihydroxy-tetrahydro-furan-2S-ylmethyl ester; compound with toluene-4-sulfonic acid], the Caco-2 permeability turned out to be 0.9 ×10⁻⁶ cm/s. Consider `CC[C@H](C)[C@H](N)C(=O)OC[C@@H]1O[C@H](n2cnc(C(N)=O)n2)[C@@H](O)[C@H]1O.Cc1ccc(S(=O)(=O)O)cc1` [Compound 10, 2S-amino-3S-methyl-pentanoic acid 5S-(3-carbamoyl-[1,2,4]triazol-1-yl)-3R,4S-dihydroxy-tetrahydro-furan-2S-ylmethyl ester; compound with toluene-4-sulfonic acid], for which the Caco-2 permeability was found to be 1.5 ×10⁻⁶ cm/s. The same measure, in the same setting: the value for `CC(C)C(=O)O[C@@H]1[C@H](OC(=O)C(C)C)[C@@H](n2cnc(C(N)=O)n2)O[C@H]1CO` [Compound 17, isobutyric acid 2S-(3-carbamoyl-[1,2,4]triazol-1-yl)-5S-hydroxymethyl-4S-isobutyryloxy-tetrahydro-furan-3S-yl ester] was 4.8 ×10⁻⁶ cm/s; that for `NC(=O)c1ncn([C@H]2O[C@@H](CO)[C@H](OC(=O)c3ccccc3)[C@@H]2OC(=O)c2ccccc2)n1` [Compound 28, benzoic acid 4S-benzoyloxy-5S-(3-carbamoyl-[1,2,4]triazol-1-yl)-2S-hydroxymethyl-tetrahydro-furan-3S-yl ester] was 26.6 ×10⁻⁶ cm/s. Still for that read-out and setting: the result for `CCCCCCCC(=O)OC[C@@H]1O[C@H](n2cnc(C(N)=O)n2)[C@@H](O)[C@H]1O` [Compound 34, octanoic acid 5S-(3-carbamoyl-[1,2,4]triazol-1-yl)-3R,4S-dihydroxy-tetrahydrofuran-2S-ylmethyl ester] reads 6.5 ×10⁻⁶ cm/s.

Test system in the next series: not given
Assay: not given
Conditions: background statement; cited from earlier work.
Regarding `NC(=O)c1ncn([C@H]2O[C@@H](CO)[C@@H](O)[C@H]2O)n1` [levovirin, Levovirin], the “dose absorbed systemically after oral administration” value is on record as “about 15%”.

A further series relates to human mononuclear cells.
Assay: not given
Particulars: treatment of human mononuclear cells; cited from earlier work.
Take `NC(=O)c1ncn([C@@H]2O[C@H](CO)[C@@H](O)[C@H]2O)n1` [Ib, ribavirin]: the “levels of IL-2, TNFα and IFNΓ” value is “elevated levels”.

These data come from patent US20040121969A1, “Antiviral nucleoside derivatives” (Roche Palo Alto LLC, priority 2002, published 2004).
